Where a name gives a salt, the structure may show the parent alone.
Molecular target: T1, SMO (Mus musculus, UniProt P56726)
T1 construct: endogenous in cells; host or cells: C3H10T1/2 (ATCC #CCL-226)
Assay: Smoothened (SMO)/Sonic Hedgehog (SHh) Transient Transcriptional Activation Assay (Gli-luciferase reporter in C3H10T1/2 cells)
Type: cell-based, murine
Conditions: 2 uM test compound, SHh 250 ng/ml, 20 hrs
Protocol: As noted above, the compounds of the invention are useful as inhibitors of SMO. Methods for determining the in vitro activity of these compounds are described below: Smoothened (SMO)/Sonic Hedgehog (SHh) Transient Transcriptional Activation Assay
On Day 1,2×10^6 C3H10T1/2 cells (ATCC #CCL-226) were split and seeded in 12 mls of growth medium Basal Medium Eagle (BME, Invitrogen #21010-046) supplemented with 2 mM L-glutamine (Invitrogen #25030-081), 0.1 units/ml penicillin and 0.1 ug/ml streptomycin (Invitrogen #15140-122), and 10% Fetal Bovine Serum (FBS, Invitrogen #16140-071) in a T-75 flask (Costar #3376). They were allowed to attach for 4 hours at 37° C., 5% CO2. The cells were then transfected using Fugene 6 (Roch #11 814 443 001) in the following reaction: 48 ul Fugene 6 and 745 ul Opti-MEM (Invitrogen #31985-070) were mixed and allowed to sit at room temperature for 5 minutes. 8 ug of pGL4.14/mGli(CS) DNA (10× murine Gli response elements and minimal CS promoter) and 0.5 ug of pEGFP DNA (Clontech) were added, gently mixed and incubated at room temperature for 20 minutes. This entire transfection mix was then added to the T-75 flask containing the cells. The cells were incubated at 37 °C, 5% C02 for 18-24 hrs.
On Day 2, the transfected cells were trypsinized and seeded into white 96 well plates (Costar #3917) in 100ul/well of growth medium at a concentration of 20,000 cells/well. The cells were allowed to recover for 4 hrs before adding serum starvation medium Dulbecco's Modified Eagle Medium (DMEM, Invitrogen #21063-029) supplemented with 2 mM L-glutamine, 0.1 units/ml penicillin and 0.1 ug/ml streptomycin, and 0.5% Calf Serum (CS, Invitrogen #26170-043). The growth media was aspirated off, and the cells were rinsed with 100 ul of starvation media. 95 ul of starvation media was then added to each well. The cells were incubated for 20 hrs at 37 °C, 5% C02.
On Day 3, cells were dosed with test compounds at a final concentration ranging from 2 uM to 2 nM. Immediately after dosing cells with compounds, recombinant human sonic hedgehog (SHh, R&D Systems #1845-SH) was add to a final concentration of 250 ng/ml. A 25 ug vial of SHh was reconstituted with 250 ul PBS/0.1% BSA to give a 100 ng/ul working stock. This working stock was then diluted 1:20 in starvation media. The transfected cells were incubated with compounds and SHh for 20 hrs at 37 °C, 5% C02.
Luciferase assays were conducted on Day 4 using Dual-Glo Luciferase assay system (Promega #E2940) according to Promega's protocol. Briefly, Dual-Glo luciferase reagent was made up and 100 uls were added to each well of the 96 well plate containing media. Plates were shaken at room temperature for 10 minutes, and then read on TopCount (Perkin-Elmer). The luminescence was recorded.

T1 sequence (P56726 33-793): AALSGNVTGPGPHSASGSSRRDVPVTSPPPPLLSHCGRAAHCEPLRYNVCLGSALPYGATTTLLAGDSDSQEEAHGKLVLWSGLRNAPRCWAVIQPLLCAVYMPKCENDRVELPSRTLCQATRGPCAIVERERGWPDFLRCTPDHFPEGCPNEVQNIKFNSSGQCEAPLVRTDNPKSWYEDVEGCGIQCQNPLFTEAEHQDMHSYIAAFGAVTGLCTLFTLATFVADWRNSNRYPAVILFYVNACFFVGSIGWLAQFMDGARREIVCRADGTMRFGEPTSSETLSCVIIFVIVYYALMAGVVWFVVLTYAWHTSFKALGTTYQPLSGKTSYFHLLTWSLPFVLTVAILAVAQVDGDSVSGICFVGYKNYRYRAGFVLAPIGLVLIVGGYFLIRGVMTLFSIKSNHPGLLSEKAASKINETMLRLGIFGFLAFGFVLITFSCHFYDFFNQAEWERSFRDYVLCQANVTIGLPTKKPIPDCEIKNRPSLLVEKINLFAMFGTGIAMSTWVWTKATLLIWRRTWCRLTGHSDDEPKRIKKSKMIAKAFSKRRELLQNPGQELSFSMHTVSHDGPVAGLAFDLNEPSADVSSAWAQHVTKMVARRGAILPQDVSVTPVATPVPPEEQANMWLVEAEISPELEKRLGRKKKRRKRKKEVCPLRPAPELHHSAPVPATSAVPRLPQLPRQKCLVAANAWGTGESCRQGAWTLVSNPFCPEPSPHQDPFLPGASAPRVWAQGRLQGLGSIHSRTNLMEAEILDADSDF

Compound | SMO % inhibition at 2 uM
N-(3-(6-((Dimethylamino)methyl]-1-methyl-1H-benzo[d]imidazol-2-yl)cyclohexyl)-2,3-dihydrobenzo[b][1,4]dioxine-6-carboxamide and N-(3-(5-((Dimethylamino)methyl]-1-methyl-1H-benzo[d]imidazol-2-yl)cyclohexyl)-2,3-dihydrobenzo[b][1,4]dioxine-6-carboxamide [Example 34] | 96%
N-((1R,3R)-3-(5-Methoxy-1H-benzo[d]imidazol-2-yl)cyclohexyl)-2,3-dihydrobenzo[b][1,4]dioxine-6-carboxamide and N-((1S,3S)-3-(5-methoxy-1H-benzo[d]imidazol-2-yl)cyclohexyl)-2,3-dihydrobenzo[b][1,4]dioxine-6-carboxamide [Example 49] | 92%

Same assay, conditions: 2 μM test compound, SHh 250 ng/ml, 20 hrs

Compound | SMO CELL % INHIBITION @ 2 μM
O=C(NC1CCCC(c2nc3ccccc3[nH]2)C1)c1ccc2cc[nH]c2c1 (stereo not shown) [Example 141, N-[3-(1H-benzimidazol-2-yl)cyclohexyl]-1H-indole-6-carboxamide triflouroacetate] | 110%

Same assay, conditions: C3H 10T1/2, 2 uM test compound, SHh 250 ng/ml, 20 hrs, read-out: SMO % inhibition at 2 uM

Compound | inhibition at 2 µM
O=C(Nc1ccc(C(F)(F)F)cc1)N[C@@H]1CCC[C@H](c2nc3ccccc3[nH]2)C1 [Example 47, 1-((1R,3S)-3-(1H-Benzo[d]imidazol-2-yl)cyclohexyl]-3-(4-(trifluoromethyl)phenyl)urea] | 108%
CN1C(=O)COc2ccc(C(=O)N[C@@H]3CCC[C@H](c4nc5ccccc5[nH]4)C3)cc21 [Example 45, N-((1R,3S)-3-(1H-Benzo[d]midazol-2-yl)cyclohexyl)-4-methyl-3-oxo-3,4-dihydro-2H-benzo[b][1,4]oxazine-6-carboxamide] | 108%
COCCn1c(C2CCCC(NC(=O)c3ccc4c(c3)OCCO4)C2)nc2ccccc21 (stereo not shown) [Example 16, N-(3-(1-(2-Methoxyethyl)-1H-benzo[d]imidazol-2-yl]cyclohexyl)-2,3-dihydrobenzo[b][1,4]dioxine-6-carboxamide] | 59%

Same assay, conditions: C3H 10T1/2, 2 μM test compound, SHh 250 ng/ml, 20 hrs, read-out: SMO CELL % INHIBITION @ 2 μM

Compound | inhibition at 2 µM
O=C(N[C@@H]1CCC[C@H](c2nc3ccccc3[nH]2)C1)C1COc2ccccc2C1 (stereo partly drawn) [Example 195, N-[(1R,3S)-3-(1H-benzimidazol-2-yl)cyclohexyl] chromane-3-carboxamide triflouroacetate] | 81%
O=C(N[C@@H]1CCC[C@H](c2nc3ccccc3[nH]2)C1)c1cnc(O)c(Cl)c1 [Example 169, N-[(1R,3S)-3-(1H-benzimidazol-2-yl)cyclohexyl]-5-chloro-6-hydroxynicotin-amide HCl] | 93%
COC(=O)CCCC(=O)NC1CCCC(c2nc3ccccc3[nH]2)C1 (stereo not shown) [Example 103, methyl 5-{[3-(1H-benzimidazol-2-yl)cyclohexyl]-amino}-5-oxopentanoate triflouroacetate] | 94%
Cc1c(Br)cc2[nH]c(C3CCCC(NC(=O)c4ccc5c(c4)OCCO5)C3)nc2c1C (stereo not shown) [Example 82, N-[3-(6-bromo-4,5-dimethyl-1H-benzimidazol-2-yl)cyclohexyl]-2,3-dihydro-1,4-benzodioxine-6-carboxamide HCl] | 101%
O=C(NC1CCCC(c2nc3ccccc3[nH]2)C1)c1ccco1 (stereo not shown) [Example 56, N-[3-(1H-benzimidazol-2-yl)cyclohexyl]-2-furamide HCl] | 51%
O=C(NC1CCCC(c2nc3ccc(F)c(F)c3[nH]2)C1)c1ccc2c(c1)OCCO2 (stereo not shown) [Example 81, N-[3-(6,7-difluoro-1H-benzimidazol-2-yl)cyclohexyl]-2,3-dihydro-1,4-benzodioxine-6-carboxamide HCl] | 103%
O=C(NC1CCCC(c2nc3ccccc3[nH]2)C1)c1ccc2snnc2c1 (stereo not shown) [Example 161, N-[3-(1H-benzimidazol-2-yl)cyclohexyl]-1,2,3-benzothiadiazole-5-carboxamide triflouroacetate] | 54%
N#Cc1ccc(NC(=O)N[C@@H]2CCC[C@H](c3nc4ccccc4[nH]3)C2)cc1 [Example 228, 1-[(1R,3S)-3-(1H-benzimidazol-2-yl)cyclohexyl]-3-(4-cyanophenyl) urea] | 109%
O=C(NC1CCCC(c2nc3ccccc3[nH]2)C1)c1ccc(-n2cnnn2)cc1 (stereo not shown) [Example 163, N-[3-(1H-benzimidazol-2-yl)cyclohexyl]-4-(1H-tetrazol-1-yl)benzamide triflouroacetate] | 95%
COc1ccc(C(=O)NC2CCCC(c3nc4ccccc4[nH]3)C2)cc1 (stereo not shown) [Example 62, N-[3-(1H-benzimidazol-2-yl)cyclohexyl]-4-methoxybenz-amide HCl] | 72%
O=C(N[C@@H]1CCC[C@@H](c2nc3ccccc3[nH]2)C1)c1ccc2c(c1)OCCO2 [Example 65, N-[(1R,3R)-3-(1H-benzimidazol-2-yl)cyclohexyl]-2,3-dihydro-1,4-benzodioxine-6-carboxamide HCl] | 96%
COc1cc(OC)cc(C(=O)NC23CCCC(c4nc5ccccc5n4C)(C2)C3)c1 [Example 245, 3,5-dimethoxy-N-(5-(1-methyl-1H-benzo[d]imidaz-ol-2-yl)bicyclo[3.1.1]heptan-1-yl)benzamide] | 49%
CC(C)(C)C(=O)NC1CCCC(c2nc3ccccc3[nH]2)C1 (stereo not shown) [Example 55, N-[3-(1H-benzimidazol-2-yl)cyclohexyl]-2,2-dimethylpropan-amide HCl] | 57%
Cn1c([C@H]2CCC[C@@H](NC(=O)c3ccc4c(c3)CCNC4)C2)nc2ccccc21 [Example 311, N-[(1R,3S)-3-(1-methyl-1H-benzimidazol-2-yl)cyclohexyl]-1,2,3,4-tetrahydroiso-quinoline-6-carboxamide HCl] | 100%
O=C(N[C@@H]1CCC[C@H](c2nc3ccccc3[nH]2)C1)c1cc2ccccc2s1 [Example 182, N-[(1R,3S)-3-(1H-benzimidazol-2-yl)cyclohexyl]-1-benzothiophene-2-carboxamide triflouroacetate] | 106%
COc1cc(OC)cc(C(=O)N[C@@H]2CCC[C@H](c3nc4ccc(C(F)(F)F)cc4[nH]3)C2)c1 [Example 170, 3,5-dimethoxy-N-{(1R,3S)-3-[6-(trifluoromethyl)-1H-benzimidazol-2-yl]cyclohexyl} benzamide HCl] | 110%
O=C(NC1CCCC(c2nc3ccccc3[nH]2)C1)c1ccnn1-c1ccccc1 (stereo not shown) [Example 106, N-[3-(1H-benzimidazol-2-yl)cyclohexyl]-1-phenyl-1H-pyrazole-5-carboxamide triflouroacetate] | 76%
CCc1n[nH]c(C(=O)NC2CCCC(c3nc4ccccc4[nH]3)C2)c1C (stereo not shown) [Example 155, N-[3-(1H-benzimidazol-2-yl)cyclohexyl]-3-ethyl-4-methyl-1H-pyrazol-5-carboxamide triflouroacetate] | 64%
O=C(N[C@@H]1CCC[C@H](c2nc3cc(C(F)(F)F)ccc3[nH]2)C1)c1ccc2c(c1)OCCO2 [Example 151, N-{(1R,3S)-3-[5-(trifluoromethyl)-1H-benzimidazol-2-yl]cyclohexyl}-2,3-dihydro-1,4-benzodioxine-6-carboxamide HCl] | 106%
Cc1ccc(C(=O)NC2CCCC(c3nc4ccccc4[nH]3)C2)c(Cl)n1 (stereo not shown) [Example 124, N-[3-(1H-benzimidazol-2-yl)cyclohexyl]-2-chloro-6-methylnico-tinamide triflouroacetate] | 62%
COc1cc(OC)cc(C(=O)NC2CCCC(c3nc4ccccc4[nH]3)C2)c1 (stereo not shown) [Example 52, N-[3-(1H-benzimidazol-2-yl)cyclohexyl]-3,5-dimethoxybenz-amide HCl] | 105%
CC(C(=O)NC1CCCC(c2nc3ccccc3[nH]2)C1)n1cccn1 (stereo not shown) [Example 142, N-[3-(1H-benzimidazol-2-yl)cyclohexyl]-2-(1H-pyrazol-1-yl)propanamide triflouroacetate] | 69%

From US20100029615A1, “BENZIMIDAZOLE DERIVATIVES” (priority 2006, published 2010)
